According to US20260364184A1, “COMPOUND BASED ON OXOISOINDOLINYL-SUBSTITUTED TETRAHYDROPYRIMIDINE-DIONE AND USE THEREOF” (GLUETACS THERAPEUTICS (SHANGHAI) CO., LTD., priority 2023, published 2026):

Columns and labels:
Type in all cases: cell-based
CDK4 = target: T1, CDK4 (Homo sapiens, UniProt P11802+Q96SW2); assay: Western blot degradation of CDK4; conditions: MDA-MB-231 Cell; 24 hours
T1 construct: expression of target proteins in cells; endogenous in cells
Method: (§1) Conventional Western blot assay was performed to evaluate the effects of the compounds of the present disclosure on the expression of target proteins in cells.
(§2) (1) Cell Seeding and Protein Harvesting: The selected cells were processed according to the cell seeding procedure and protein harvesting procedure in Table II-2.
(§3) (2) To the collected supernatant, 5×SDS sample loading buffer was added, followed by denaturation at 95 °C for 5 minutes. The denatured samples were then separated by SDS-PAGE electrophoresis on a polyacrylamide gel. Proteins were transferred to a nitrocellulose membrane (0.45 μm NC membrane), blocked with blocking buffer at room temperature for 1 hour, and subjected to antibody incubation and development procedures according to the antibody manufacturer's instructions (Cell Signaling Technology).
(§4) Half-Maximal Degradation Concentration value (the drug concentration required for degrading proteins by 50%, abbreviated as DC50) reads method: comparing the grayscale values of Western blot bands from drug-treated samples with those from blank DMSO-treated controls, and identifying the drug concentration range at which the grayscale value is half that of the DMSO-treated control bands.
(§5) DC50 values can be calculated using ImageJ software to measure grayscale values of Western blot bands from drug-treated samples. The concentration-response curve is fitted to estimate the drug concentration corresponding to half the grayscale value.
(§6) Target protein remaining (%) refers to the percentage of target protein remaining in cells after treatment with protein degrader compounds.
(§7) Calculation method for target protein remaining (%): Use ImageJ software to measure grayscale values of Western blot bands from drug (protein degrader)-treated samples. The grayscale value of drug-treated bands is divided by that of internal control protein bands, and the resulting quotient is normalized to obtain the relative percentage of remaining target protein after protein degrader treatment.
(§8) Target protein degradation rate (%)=1−target protein remaining (%).

CDK6 = target: T2, CDK6 (Homo sapiens, UniProt Q00534+Q96SW2); assay: Western blot degradation of CDK6; conditions: MDA-MB-231 Cell; 24 hours
T2 construct: expression of target proteins in cells; endogenous in cells
T2 sequence (Q00534 whole entry): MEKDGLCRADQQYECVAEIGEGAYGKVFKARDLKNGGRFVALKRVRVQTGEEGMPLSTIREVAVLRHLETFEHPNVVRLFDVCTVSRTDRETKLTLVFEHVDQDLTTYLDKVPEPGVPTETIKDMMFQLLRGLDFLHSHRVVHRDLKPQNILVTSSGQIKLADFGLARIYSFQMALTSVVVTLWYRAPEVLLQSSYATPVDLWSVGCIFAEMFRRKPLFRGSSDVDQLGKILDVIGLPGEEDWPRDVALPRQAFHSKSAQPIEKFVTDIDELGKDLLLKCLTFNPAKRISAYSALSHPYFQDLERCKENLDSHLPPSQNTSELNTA
T2 sequence (Q96SW2 whole entry): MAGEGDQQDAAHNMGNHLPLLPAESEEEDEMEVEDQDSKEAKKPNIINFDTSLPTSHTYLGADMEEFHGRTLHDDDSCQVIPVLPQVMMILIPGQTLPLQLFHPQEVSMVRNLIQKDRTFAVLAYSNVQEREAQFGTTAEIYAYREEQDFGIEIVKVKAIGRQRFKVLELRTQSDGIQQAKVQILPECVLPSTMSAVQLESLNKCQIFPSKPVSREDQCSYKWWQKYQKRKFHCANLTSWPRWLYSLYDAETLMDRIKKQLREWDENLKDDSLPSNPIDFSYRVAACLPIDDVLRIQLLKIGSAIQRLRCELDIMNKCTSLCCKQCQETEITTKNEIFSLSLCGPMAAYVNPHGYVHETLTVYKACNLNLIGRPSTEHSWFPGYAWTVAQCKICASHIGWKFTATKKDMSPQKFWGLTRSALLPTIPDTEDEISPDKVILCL
T2 sequence (Q16531 whole entry partner): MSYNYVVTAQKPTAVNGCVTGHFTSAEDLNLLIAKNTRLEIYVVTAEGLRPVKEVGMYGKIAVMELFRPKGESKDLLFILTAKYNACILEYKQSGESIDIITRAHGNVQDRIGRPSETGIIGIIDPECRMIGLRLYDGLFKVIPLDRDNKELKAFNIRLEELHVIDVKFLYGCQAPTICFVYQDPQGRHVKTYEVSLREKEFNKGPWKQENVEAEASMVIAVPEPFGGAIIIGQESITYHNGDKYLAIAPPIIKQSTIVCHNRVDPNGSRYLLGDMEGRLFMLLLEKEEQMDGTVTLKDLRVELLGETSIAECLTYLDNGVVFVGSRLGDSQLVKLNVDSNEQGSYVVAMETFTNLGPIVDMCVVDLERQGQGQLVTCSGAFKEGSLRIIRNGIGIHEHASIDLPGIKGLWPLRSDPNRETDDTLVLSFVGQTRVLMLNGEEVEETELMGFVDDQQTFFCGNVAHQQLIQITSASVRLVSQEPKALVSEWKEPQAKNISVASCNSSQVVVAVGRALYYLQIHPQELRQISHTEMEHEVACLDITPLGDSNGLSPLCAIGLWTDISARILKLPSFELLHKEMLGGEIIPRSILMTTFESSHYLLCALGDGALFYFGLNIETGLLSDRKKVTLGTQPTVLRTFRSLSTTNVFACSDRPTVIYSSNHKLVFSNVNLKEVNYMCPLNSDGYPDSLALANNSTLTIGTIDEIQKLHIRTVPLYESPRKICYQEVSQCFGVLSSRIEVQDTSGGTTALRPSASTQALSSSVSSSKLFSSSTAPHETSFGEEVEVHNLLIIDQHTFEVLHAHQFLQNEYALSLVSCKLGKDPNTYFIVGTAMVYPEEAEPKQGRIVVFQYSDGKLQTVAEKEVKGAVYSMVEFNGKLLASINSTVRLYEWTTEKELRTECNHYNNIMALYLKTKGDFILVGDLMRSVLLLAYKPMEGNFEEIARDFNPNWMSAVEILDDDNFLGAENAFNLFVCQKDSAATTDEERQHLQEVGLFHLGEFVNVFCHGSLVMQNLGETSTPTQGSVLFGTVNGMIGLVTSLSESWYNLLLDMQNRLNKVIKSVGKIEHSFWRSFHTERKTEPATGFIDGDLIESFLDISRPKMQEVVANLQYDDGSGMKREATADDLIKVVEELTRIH
Method: as §1, §2, §3, §4, §5, §6, §7, §8

[1] = Inhibition of RPMI-8226 cell proliferation (CellTiter luminescent viability); conditions: Homo sapiens; RPMI-8226; 10 nM; read-out: Inhibition Rate at 10 nM (%)
[2] = test system: Human B-Cell Lymphoma Cells (RPMI-8226); assay: as above; conditions: RPMI-8226, 500 nM, read-out: Inhibition Rate at 500 nM (%)
[3] = test system: Human lung cancer cell line (H292); assay: Inhibition of H292 cell proliferation (CellTiter luminescent viability); conditions: NCI-H292, Table IM1, CDK9 inhibitor-based, 96 hours; for inhibition at 0.01 µM: H292, 10 nM, read-out: Inhibition Rate at 10 nM (%); for inhibition at 0.5 µM: H292, 500 nM, read-out: Inhibition Rate at 500 nM (%)
Method: The tumor cells used herein were cultured in a cell culture medium listed in table 3 at 37 °C in an incubator with 5% CO2. Prior to experimentation, all cell lines used were correctly identified by STR profiling, and tested negative for mycoplasma contamination using a mycoplasma detection kit through routine screenings.
The IC50 values of the compounds of the present disclosure (including the compounds in Table 1, Table 2, and Examples 1-468) were determined using the CellTiter-Meiluncell Luminescent Cell Viability Assay Kit from Dalian Meilun Biotech Co., Ltd. The detailed procedure is as follows: Tumor cells were seeded in 96-well cell culture plates at the densities specified in Table 4. On the following day, the test compounds of the present disclosure were subjected to serial dilution. The dilution can be performed according to one of the following two methods: • (1) The first dilution method: The test compounds of the present disclosure (including the compounds in Table 1, Table 2, and Examples 1-468) were subjected to 5-fold serial dilutions starting from a highest concentration of 2000 μM, resulting in a total of 9 concentrations from high to low (2000, 400, 80, 16, 3.2, 0.64, 0.128, 0.0256, 0.00512 μM). Subsequently, 0.5 μL of the test compound dilution was transferred into the 96-well plate containing the cells, with each well containing 100 μL of cell culture medium. […] Into the 96-well plate, the diluted test compounds and corresponding detection reagents were added, resulting in final test compound concentrations of 500 nM and 10 nM, respectively. The experimental procedure is described below using the diluted 2 μM test compound as an example.
0.5 μL of the aforementioned diluted compound of the present disclosure (including the compounds in Table 1, Table 2, and Examples 1-468) was added to the seeded cells in 100 μL of medium, yielding a final test compound concentration of 10 nM. After the cells were treated with the compounds of the present disclosure for a specified period, the cell viability assay reagent was added to the culture medium according to the kit's instructions to determine cell viability. […] All controls were treated using the same procedure as the compounds of the present disclosure. The growth inhibition curves for the compounds of the present disclosure were plotted using Prism GraphPad software, and the IC50 values were calculated therefrom.

T1 sequence (P11802 whole entry): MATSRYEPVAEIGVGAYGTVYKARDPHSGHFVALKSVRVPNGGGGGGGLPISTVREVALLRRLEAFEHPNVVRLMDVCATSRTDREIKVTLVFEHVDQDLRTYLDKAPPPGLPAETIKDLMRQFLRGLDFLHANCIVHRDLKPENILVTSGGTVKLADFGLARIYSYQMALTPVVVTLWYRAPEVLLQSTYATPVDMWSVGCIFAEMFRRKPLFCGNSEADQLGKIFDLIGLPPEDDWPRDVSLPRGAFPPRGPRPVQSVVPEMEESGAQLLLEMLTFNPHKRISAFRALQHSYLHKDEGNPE
T1 sequence (Q96SW2 whole entry): as the sequence (Q96SW2 whole entry) above
T1 sequence (Q16531 whole entry partner): as the sequence (Q16531 whole entry partner) above

## CN(C)C(=O)c1cc2cnc(Nc3ccc(N4CCC(CN5CC6CCC(C5)N6c5ccc6c(c5)C(=O)N(N5CCC(=O)NC5=O)C6=O)CC4)cn3)nc2n1C1CCCC1 [GT-05200, 7-cyclopentyl-2-((5-(4-((8-(2-(2,4-dioxotetrahydropyrimidin-1(2H)-yl)-1,3-dioxoisoindolin-5-yl)-3,8-diazabicyclo[3.2.1]octan-3-yl)methyl)piperidin-1-yl)pyridin-2-yl)amino)-N,N-dimethyl-7H-pyrrolo[2,3-d]pyrimidine-6-carboxamide]
CDK4
  Degradation of substrate protein CDK4 (substrate protein remaining %): B (80%<substrate protein remaining %≤100%)
CDK6
  Degradation of substrate protein CDK6 (substrate protein remaining %): A (0%≤substrate protein remaining %≤80%)

## CN(C)C(=O)c1cc2cnc(Nc3ccc(N4CCC(CN5CCN(c6ccc7c(c6F)C(=O)N(N6CCC(=O)NC6=O)C7=O)CC5)CC4)cn3)nc2n1C1CCCC1 [GT-05203, 7-cyclopentyl-2-((5-(4-((4-(2-(2,4-dioxotetrahydropyrimidin-1(2H)-yl)-4-fluoro-1,3-dioxoisoindolin-5-yl)piperazin-1-yl)methyl)piperidin-1-yl)pyridin-2-yl)amino)-N,N-dimethyl-7H-pyrrolo[2,3-d]pyrimidine-6-carboxamide]
CDK4
  Degradation of substrate protein CDK4 (substrate protein remaining %): B (80%<substrate protein remaining %≤100%)
CDK6
  Degradation of substrate protein CDK6 (substrate protein remaining %): A (0%≤substrate protein remaining %≤80%)

## CN(C)C(=O)c1cc2cnc(Nc3ccc(N4CCC(CN5CCN(c6cc(F)c7c(c6)C(=O)N(N6CCC(=O)NC6=O)C7=O)CC5)CC4)cn3)nc2n1C1CCCC1 [GT-05204, 7-cyclopentyl-2-((5-(4-((4-(2-(2,4-dioxotetrahydropyrimidin-1(2H)-yl)-7-fluoro-1,3-dioxoisoindolin-5-yl)piperazin-1-yl)methyl)piperidin-1-yl)pyridin-2-yl)amino)-N,N-dimethyl-7H-pyrrolo[2,3-d]pyrimidine-6-carboxamide]
CDK4
  Degradation of substrate protein CDK4 (substrate protein remaining %): B (80%<substrate protein remaining %≤100%)
CDK6
  Degradation of substrate protein CDK6 (substrate protein remaining %): A (0%≤substrate protein remaining %≤80%)

## CN(C)C(=O)c1cc2cnc(Nc3ccc(N4CCC(CN5CCN(C6CCN(c7ccc8c(c7)C(=O)N(N7CCC(=O)NC7=O)C8=O)CC6(F)F)CC5)CC4)cn3)nc2n1C1CCCC1 (stereo not shown) [GT-05206, 7-cyclopentyl-2-((5-(4-((4-(1-(2-(2,4-dioxotetrahydropyrimidin-1(2H)-yl)-1,3-dioxoisoindolin-5-yl)-3,3-difluoropiperidin-4-yl)piperazin-1-yl)methyl)piperidin-1-yl)pyridin-2-yl)amino)-N,N-dimethyl-7H-pyrrolo[2,3-d]pyrimidine-6-carboxamide]
CDK4
  Degradation of substrate protein CDK4 (substrate protein remaining %): B (80%<substrate protein remaining %≤100%)
CDK6
  Degradation of substrate protein CDK6 (substrate protein remaining %): A (0%≤substrate protein remaining %≤80%)

## CN(C)C(=O)c1cc2cnc(Nc3ccc(N4CCC(CN5C6CC5CN(c5ccc7c(c5)C(=O)N(N5CCC(=O)NC5=O)C7=O)C6)CC4)cn3)nc2n1C1CCCC1 [GT-05820, 7-cyclopentyl-2-((5-(4-((3-(2-(2,4-dioxotetrahydropyrimidin-1(2H)-yl)-1,3-dioxoisoindolin-5-yl)-3,6-diazabicyclo[3.1.1]heptan-6-yl)methyl)piperidin-1-yl)pyridin-2-yl)amino)-N,N-dimethyl-7H-pyrrolo[2,3-d]pyrimidine-6-carboxamide]
CDK4
  Degradation of substrate protein CDK4 (substrate protein remaining %): B (80%<substrate protein remaining %≤100%)
CDK6
  Degradation of substrate protein CDK6 (substrate protein remaining %): A (0%≤substrate protein remaining %≤80%)

## CN(C)C(=O)c1cc2cnc(Nc3ccc(N4CCC(CN5CC6CCC5CN6c5ccc6c(c5)C(=O)N(N5CCC(=O)NC5=O)C6=O)CC4)cn3)nc2n1C1CCCC1 (stereo not shown) [GT-05831, 7-cyclopentyl-2-((5-(4-((5-(2-(2,4-dioxotetrahydropyrimidin-1(2H)-yl)-1,3-dioxoisoindolin-5-yl)-2,5-diazabicyclo[2.2.2]octan-2-yl)methyl)piperidin-1-yl)pyridin-2-yl)amino)-N,N-dimethyl-7H-pyrrolo[2,3-d]pyrimidine-6-carboxamide]
CDK4
  Degradation of substrate protein CDK4 (substrate protein remaining %): B (80%<substrate protein remaining %≤100%)
CDK6
  Degradation of substrate protein CDK6 (substrate protein remaining %): A (0%≤substrate protein remaining %≤80%)

## CN(C)C(=O)c1cc2cnc(Nc3ccc(N4CCN(Cc5ccc6c(c5)C(=O)N(N5CCC(=O)NC5=O)C6=O)CC4)cn3)nc2n1C1CCCC1 [GT-06336, 7-cyclopentyl-2-((5-(4-((2-(2,4-dioxotetrahydropyrimidin-1(2H)-yl)-1,3-dioxoisoindolin-5-yl)methyl)piperazin-1-yl)pyridin-2-yl)amino)-N,N-dimethyl-7H-pyrrolo[2,3-d]pyrimidine-6-carboxamide]
CDK4
  Degradation of substrate protein CDK4 (substrate protein remaining %): A (0%≤substrate protein remaining %≤80%)
CDK6
  Degradation of substrate protein CDK6 (substrate protein remaining %): B (80%<substrate protein remaining %≤100%)

## CN(C)C(=O)c1cc2cnc(Nc3ccc(N4CCN(CC5CCN(c6ccc7c(c6)C(=O)N(N6CCC(=O)NC6=O)C7=O)CC5)CC4)cn3)nc2n1C1CCCC1 [GT-06337, 7-cyclopentyl-2-((5-(4-((1-(2-(2,4-dioxotetrahydropyrimidin-1(2H)-yl)-1,3-dioxoisoindolin-5-yl)piperidin-4-yl)methyl)piperazin-1-yl)pyridin-2-yl)amino)-N,N-dimethyl-7H-pyrrolo[2,3-d]pyrimidine-6-carboxamide]
CDK4
  Degradation of substrate protein CDK4 (substrate protein remaining %): B (80%<substrate protein remaining %≤100%)
CDK6
  Degradation of substrate protein CDK6 (substrate protein remaining %): A (0%≤substrate protein remaining %≤80%)

## O=C1CCN(N2Cc3cc(CN4CCN(c5ccc(CC(=O)Nc6cc(C7CCC7)[nH]n6)cc5)CC4)ccc3C2=O)C(=O)N1 [GT-08229, N-(5-cyclobutyl-1H-pyrazol-3-yl)-2-(4-(4-((2-(2,4-dioxotetrahydropyrimidin-1(2H)-yl)-1-oxoisoindolin-5-yl)methyl)piperazin-1-yl)phenyl)acetamide]
[1]
  inhibition at 0.01 µM: 10 to 20%
[2]
  inhibition at 0.5 µM: 10 to 20%
[3]
  inhibition at 0.01 µM: 20 to 30%
  inhibition at 0.5 µM: 30 to 40%

## Cn1ncc(-c2nc(NC3CCN(CC4CCN(c5cccc6c5C(=O)N(N5CCC(=O)NC5=O)C6=O)CC4)CC3)ncc2Cl)c1CC1CC1 [GT-08347, 4-(4-((4-((5-chloro-4-(5-(cyclopropylmethyl)-1-methyl-1H-pyrazol-4-yl)pyrimidin-2-yl)amino)piperidin-1-yl)methyl)piperidin-1-yl)-2-(2,4-dioxotetrahydropyrimidin-1(2H)-yl)isoindoline-1,3-dione]
[1]
  inhibition at 0.01 µM: 20 to 30%
[2]
  inhibition at 0.5 µM: 10 to 20%
[3]
  inhibition at 0.01 µM: 5 to 10%
  inhibition at 0.5 µM: 20 to 30%

## O=C1CCN(N2C(=O)c3ccc(N4CCC(CN5CCN(c6ccc(CC(=O)Nc7cc(C8CCC8)[nH]n7)cc6)CC5)CC4)cc3C2=O)C(=O)N1 [GT-08350, N-(5-cyclobutyl-1H-pyrazol-3-yl)-2-(4-(4-((1-(2-(2,4-dioxotetrahydropyrimidin-1(2H)-yl)-1,3-dioxoisoindolin-5-yl)piperidin-4-yl)methyl)piperazin-1-yl)phenyl)acetamide]
[1]
  inhibition at 0.01 µM: 10 to 20%
[2]
  inhibition at 0.5 µM: 20 to 30%
[3]
  inhibition at 0.01 µM: 40 to 50%
  inhibition at 0.5 µM: 40 to 50%
